Like-named read-outs stand apart in the source and are kept apart here.
Experiments:
[1] = test system: NFF, neonatal foreskin fibroblasts; experiment: Cell survival assay (clonogenic survival, SRB), normal cells; type: cell-based, human; conditions: SRB
Method: (§1) The cytotoxicities of the compounds of the invention were determined by clonogenic survival of human cancer cells (MM96L, melanoma) and human normal cells (NFF, neonatal foreskin fibroblasts). Cells were incubated with the compounds at various concentrations of compound (0.01-10 μg/mL) for 24 hours, washed, and then grown for a further four days in the absence of hydroxamic acid before determining cell survival by cell count. The final readout involved staining with sulforhodamine B (SRB), a cost-effective method amenable to automation and high throughput analysis. At the technical level, “cell sensitivity” is often inferred from short term (1-2 day) observations such as apoptosis, which may not be a satisfactory model of clonogenic survival.
(§2) Cell Lines and Culture Medium. All cell lines used in this study have been described previously (Parsons et al., 1986; Todaro et al., 1980; Glenn et al., 2004). All cell lines were cultured in 10% heat-inactivated foetal calf serum (CSL, Australia) in RPMI 1640 medium supplemented with 100 U/mL penicillin, 100 μg/mL streptomycin, and 3 mM HEPES at 5% CO2, 99% humidity at 37° C. Primary human fibroblasts were obtained from neonatal foreskins and cultured in the above medium. Routine mycoplasma tests were performed using Hoechst stain^i and were always negative.
(§3) Cell Survival Assay. Cells were plated into 96-well microtitre plates at 5×10^3 cells/well, and allowed to adhere overnight. Test compounds were added to culture medium at the indicated concentrations, and plates incubated in the above conditions for 24 hours. Following this incubation period, compounds and media were removed, and replaced with fresh culture medium. Cells were then grown for a further 72 hours before assay using sulforhodamine B (SRB; Sigma, St. Louis, Mo.) as previously described. Briefly, the culture medium was removed from the 96-well microtitre plates and the plates washed twice with phosphate buffered saline (PBS), before the cells were fixed with methylated spirits for 15 minutes. The plates were then rinsed with tap water and the fixed cells stained with 50 μL/well of SRB solution (0.4% sulforhodamine B (w/v) in 1% (v/v) acetic acid) over a period of 1 hour. The SRB solution was then removed from the wells and the plates rapidly washed two times with 1% (v/v) acetic acid. Protein bound dye was then solubilised with the addition of 100 μL of 10 mM unbuffered Tris, and incubated for 15 min at 25° C. Plates were then read at 564 nm on a VERSA max tunable microplate reader (Molecular Devices, Sunnyvale, Calif.).

MM96L melanoma cells = experiment: Cell survival assay (clonogenic survival, SRB); type: cell-based, human; conditions: for SI (Selectivity Index = IC50 (NFF)/IC50 (MM96L)): NFF vs MM96L
Method: as §1, §2, §3

[2] = NFF normal fibroblasts, 24 h with compound, further 72 h growth, read-out: IC50 (uM) NFF
[3] = MM96L melanoma, 24 h with compound, further 72 h growth, SRB, read-out: IC50 (uM) MM96L
[4] = Table 8, 24 hours with compound, further growth, read-out: IC50 (μM) NFF
[5] = Table 8, 24 hours with compound, further growth, SRB, read-out: IC50 (μM) MM96
[6] = Table 8, IC50 (NFF)/IC50 (MM96L)
[7] = Homo sapiens, Fibroblast, NFF normal fibroblasts, 24 h with compound, further 72 h growth, read-out: IC50 (uM) NFF
[8] = Homo sapiens, MM96L, MM96L melanoma, 24 h with compound, further 72 h growth, SRB, read-out: IC50 (uM) MM96L
[9] = Homo sapiens, Fibroblast, 24 h, Table 7, 24 hours with compound, further growth, read-out: IC50 (μM) NFF
[10] = Homo sapiens, MM96L, 24 h, Table 7, 24 hours with compound, further growth, SRB, read-out: IC50 (μM) MM96L
[11] = Table 7, IC50 (NFF)/IC50 (MM96L)
[12] = Table 5, 24 hours with compound, further growth, read-out: IC50 NFF
[13] = Table 5, 24 hours with compound, further growth, SRB, read-out: IC50 MM96L
[14] = Table 5, Selectivity Index = IC50 (NFF)/IC50 (MM96L)

Q: What does the source list for `O=C(CCCCCC(NC(=O)OCc1ccccc1)C(=O)NC1CCCc2ccccc21)NO` (centres unmarked) [Example 156]?
A: IC50 [1, 2]: 1.71 µM; IC50 (MM96L melanoma cells; [3]): 1.71 µM; SI (Selectivity Index = IC50 (NFF)/IC50 (MM96L)) (MM96L melanoma cells): 1

Q: For `CN(C)c1ccc(C(=O)NC(CSCCCC(=O)NO)C(=O)NCc2ccc(C(=O)NC(c3ccccc3)C(O)c3ccccc3)cc2)cc1` (centres unmarked) [Example 112], which IC50 [1, 4] is on record?
A: The IC50 was 14.3 µM.

Q: What about the IC50 (MM96L melanoma cells; [5]) of the same compound?
A: The IC50 was 2.87 µM.

Q: And the Selectivity (MM96L melanoma cells; [6])?
A: Its Selectivity is 5.0.

Q: Which IC50 [1, 4] does the source give for `CN(C)c1ccc(C(=O)N[C@@H](CSCCCC(=O)NO)C(=O)NCc2ccc(C(=O)Nc3cccc4cccnc34)cc2)cc1` [Example 115] here?
A: The IC50 was 1.35 µM.

Q: And the IC50 (MM96L melanoma cells; [5])?
A: Its IC50 is 0.56 µM.

Q: What about the Selectivity (MM96L melanoma cells; [6]) of the same compound?
A: Its Selectivity is 2.4.

Q: How did the IC50 [1, 7] turn out when `O=C(CCCCC[C@H](NC(=O)c1cc2c(O)cccc2[nH]1)C(=O)NCc1ccccc1)NO` [Example 166] was run?
A: The IC50 was 2.21 µM.

Q: And the IC50 (MM96L melanoma cells; [8])?
A: The IC50 was 0.331 µM.

Q: What about the IC50 (MM96L melanoma cells; Homo sapiens, MM96L, most preferred compounds, exemplary examples, read-out: potency of IC50 against the MM96 melanoma cells) of the same compound?
A: The IC50 was at most 0.5 µM.

Q: And the “SI (Selectivity Index = IC50 (NFF)/IC50 (MM96L))” value (MM96L melanoma cells)?
A: The value was 6.7.

Q: Which results are given for `CN(C)c1ccc(C(=O)NC(CCCCCC(=O)NO)C(=O)NC2CCCc3ccccc32)cc1` (racemic) [Example 125]?
A: IC50 [1, 2]: 1.81 ± 0.07 µM; IC50 (MM96L melanoma cells; [3]): 0.3 ± 0.1 µM; SI (Selectivity Index = IC50 (NFF)/IC50 (MM96L)) (MM96L melanoma cells): 6.0

Q: Which results are given for `O=C(/C=C/c1ccccc1)N[C@@H](CSCCCC(=O)NO)C(=O)Nc1cccnc1` [Example 98]?
A: IC50 [1, 9]: 6.4 ± 0.8 µM; IC50 (MM96L melanoma cells; [10]): 1.2 ± 0.3 µM; Selectivity (MM96L melanoma cells; [11]): 5.2

Q: Which results are given for `O=C(CCCCC[C@H](NC(=O)Cc1ccc(-c2ccccc2)cc1)C(=O)NCc1ccccc1)NO` [Example 140]?
A: IC50 [1, 7]: 5.13 µM; IC50 (MM96L melanoma cells; [8]): 2.36 µM; SI (Selectivity Index = IC50 (NFF)/IC50 (MM96L)) (MM96L melanoma cells): 2.2

Q: With `CN(C)c1ccc(C(=O)N[C@@H](CSCCCC(=O)NO)C(=O)N[C@H](c2ccccc2)[C@@H](O)c2ccccc2)cc1` [Example 76] as the compound, how does the IC50 ([1]; Table 6, 24 hours with compound, further growth, read-out: IC50 (μM) NFF) read?
A: The IC50 was 9 ± 3 µM.

Q: What about the IC50 (MM96L melanoma cells; Table 6, 24 hours with compound, further growth, SRB, read-out: IC50 (μM) MM96L) of the same compound?
A: The IC50 was 2.1 ± 0.2 µM.

Q: And the Selectivity (MM96L melanoma cells; Table 6, IC50 (NFF)/IC50 (MM96L))?
A: Its Selectivity is 4.3.

Q: Which IC50 [1, 9] does the source give for `O=C(/C=C/c1ccccc1)N[C@@H](CSCCCC(=O)NO)C(=O)NCc1ccccn1` [Example 102] here?
A: The IC50 was 4.2 ± 0.4 µM.

Q: What about the IC50 (MM96L melanoma cells; [10]) of the same compound?
A: The IC50 was 0.8 ± 0.3 µM.

Q: And the Selectivity (MM96L melanoma cells; [11])?
A: Its Selectivity is 5.3.

Q: How did the IC50 [1, 2] turn out when `CN(C)c1ccc(C(=O)N[C@@H](CCCCCC(=O)NO)C(=O)NCc2ccccc2)cc1` [Example 122] was run?
A: Its IC50 is 12 ± 2 µM.

Q: What about the IC50 (MM96L melanoma cells; [3]) of the same compound?
A: Its IC50 is 1.6 ± 0.3 µM.

Q: And the “SI (Selectivity Index = IC50 (NFF)/IC50 (MM96L))” value (MM96L melanoma cells)?
A: Its value is 7.8.

Q: Which IC50 [1, 12] does the source give for `O=C(CCCSC[C@H](NS(=O)(=O)c1ccccc1)C(=O)NCc1ccccc1)NO` [Example 58] here?
A: Its IC50 is over 100 µM.

Q: And the IC50 (MM96L melanoma cells; [13])?
A: The IC50 was under 100 µM.

Q: What about the Selectivity (MM96L melanoma cells; [14]) of the same compound?
A: Its Selectivity is over 1.

Q: `O=C(CCCCC[C@H](NC(=O)OCc1ccccc1)C(=O)NCc1ccncc1)NO` [Example 159] was tested. Which IC50 [1, 7] did it give?
A: The IC50 was 23.3 µM.

Q: What about the IC50 (MM96L melanoma cells; [8]) of the same compound?
A: The IC50 was 4.32 µM.

Q: What about the “SI (Selectivity Index = IC50 (NFF)/IC50 (MM96L))” value (MM96L melanoma cells) of the same compound?
A: Its value is 5.4.

Q: With `O=C(CCCSC[C@H](NC(=O)CCc1ccccc1)C(=O)NCc1ccccc1)NO` [Example 46] as the compound, how does the IC50 [1, 12] read?
A: The IC50 was 21 ± 3 µM.

Q: What about the IC50 (MM96L melanoma cells; [13]) of the same compound?
A: Its IC50 is 7.4 ± 0.5 µM.

Q: What about the Selectivity (MM96L melanoma cells; [14]) of the same compound?
A: The Selectivity was 2.9.

Q: `O=C(CCCSC[C@H](NC(=O)c1cnccn1)C(=O)NCc1ccccc1)NO` [Example 35] was tested. Which IC50 [1, 12] did it give?
A: The IC50 was 62 ± 5 µM.

Q: And the IC50 (MM96L melanoma cells; [13])?
A: Its IC50 is 19 ± 2 µM.

Q: What about the Selectivity (MM96L melanoma cells; [14]) of the same compound?
A: The Selectivity was 3.3.

Q: For `O=C(CCCCC[C@H](NC(=O)c1cccs1)C(=O)NCc1ccccc1)NO` [Example 141], which IC50 [1, 7] is on record?
A: Its IC50 is 5.2 µM.

Q: What about the IC50 (MM96L melanoma cells; [8]) of the same compound?
A: Its IC50 is 0.892 µM.

Q: And the “SI (Selectivity Index = IC50 (NFF)/IC50 (MM96L))” value (MM96L melanoma cells)?
A: The value was 5.8.

Q: Which IC50 [1, 9] does the source give for `Cc1ccnc(NC(=O)[C@H](CSCCCC(=O)NO)NC(=O)/C=C/c2ccccc2)c1` [Example 99] here?
A: The IC50 was 4 ± 0.6 µM.

Q: And the IC50 (MM96L melanoma cells; [10])?
A: The IC50 was 0.6 ± 0.2 µM.

Q: And the Selectivity (MM96L melanoma cells; [11])?
A: Its Selectivity is 6.5.

Q: How did the IC50 [1, 4] turn out when `CN(C)c1ccc(C(=O)N[C@@H](CSCCCC(=O)NO)C(=O)NCc2ccc(C(=O)NCc3ccccc3)cc2)cc1` [Example 106] was run?
A: The IC50 was 11.8 µM.

Q: And the IC50 (MM96L melanoma cells; [5])?
A: The IC50 was 1.18 µM.

Q: And the Selectivity (MM96L melanoma cells; [6])?
A: Its Selectivity is 10.0.

Q: Which results are given for `O=C(CCCCC[C@H](NC(=O)OCc1ccccc1)C(=O)NCc1ccccc1)NO` [Example 154]?
A: IC50 [1, 7]: 1.52 µM; IC50 (MM96L melanoma cells; [8]): 1.52 µM; SI (Selectivity Index = IC50 (NFF)/IC50 (MM96L)) (MM96L melanoma cells): 1

Q: How did the IC50 [1, 2] turn out when `O=C(CCCCCC(NC(=O)C(Cc1ccccc1)NC(=O)Cc1c[nH]c2ccccc12)C(=O)NCc1ccccc1)NO` (centres unmarked) [Example 164] was run?
A: The IC50 was 9.76 µM.

Reference: patent US20080004290A1, “Anti-Cancer Agents” (THE UNIVERSITY OF QUEENSLAND, priority 2003, published 2008)
